Legend:
MCF7 cells = assay: Oxygen consumption rate, parental MCF7 cells; type: cell-based, human; settings: 40 μM heme for 1 hour
4B8^FL cells [1] = assay: FPT intensity in 4B8 cells complemented with full length MFSD7C; type: cell-based, human; settings: 40 μM heme 1 hour
Procedure: FIGS. 4A-4H show NTD of MFSD7C mediates heme effect on mitochondrial respiration. FIGS. 4A-4C show comparison of basal OCR (FIG. 4A), maximal OCR (FIG. 4B) and ECAR (FIG. 4C) of THP-1, 4B8, and 4B8^FL and 4B8^ΔN cells treated with vehicle or heme for 1 hour (n=18 separate experiments). […] Cells were incubated with FPT for 6 hrs, washed and reseeded in poly-lysine coated glass bottom dishes. After cells attached to the glass, medium containing 40 μM heme was added. Cells in the same field were imaged immediately and again 1 hour later. Relative FPT fluorescent intensities, normalized to THP-1, from three experiments are shown. (n=3 independent experiments). […] THP-1 cells were co-cultured with 4B8, 4B8^FL, or 4B8^ΔN in FPT solution for 6 hrs, washed and reseeded in poly-lysine coated glass bottom dishes. […] THP-1, 4B8, 4B8^FL and 4B8^ΔN cells were treated with vehicle or heme for 1 hour and MMP was measured by using JC-10 Mitochondrial Membrane Potential Assay Kit followed by flow cytometry. […] Shown are representative Western blotting data (FIG. 4G) and quantification of band intensities from n=3 independent experiments (FIG. 4H). P-values were calculated using two-way ANOVA (*p<0.05, **p<0.01, ***p<0.005). […]
In the second approach, we used fluorescent polymeric thermometer (FPT), which we synthesized in-house (see above). […] Then the fluorescence intensities were determined by a flow cytometer.

[2] = target: T1, endogenous MFSD7C and SERCA2b (Mus musculus, UniProt Q91X85); assay: Co-IP of endogenous MFSD7C and SERCA2b in bone marrow-derived macrophages; type: cell-based; settings: bone marrow-derived wild-type macrophages, heme treatment
T1 construct: Co-IP and immunoblotting analysis of endogenous MFSD7C with ATP5h, SERCA2b and HMOX1 in bone marrow-derived macrophages; endogenous in cells; host or cells: bone marrow-derived macrophages from C57BL/6 mice
T1 sequence (Q91X85 whole entry): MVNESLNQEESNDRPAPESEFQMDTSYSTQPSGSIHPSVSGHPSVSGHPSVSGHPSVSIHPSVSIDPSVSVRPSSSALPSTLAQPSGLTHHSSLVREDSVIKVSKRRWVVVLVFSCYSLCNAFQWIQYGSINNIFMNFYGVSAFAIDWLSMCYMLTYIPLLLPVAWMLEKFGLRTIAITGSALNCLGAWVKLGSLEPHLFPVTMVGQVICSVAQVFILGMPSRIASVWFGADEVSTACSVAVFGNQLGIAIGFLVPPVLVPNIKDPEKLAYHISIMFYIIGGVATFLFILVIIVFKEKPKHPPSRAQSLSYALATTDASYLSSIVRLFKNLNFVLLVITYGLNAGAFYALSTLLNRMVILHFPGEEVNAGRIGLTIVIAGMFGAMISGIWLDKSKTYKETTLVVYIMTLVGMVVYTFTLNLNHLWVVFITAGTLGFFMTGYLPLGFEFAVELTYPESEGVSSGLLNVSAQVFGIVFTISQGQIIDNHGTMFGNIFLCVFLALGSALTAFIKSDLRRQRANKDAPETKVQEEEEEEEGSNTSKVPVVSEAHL
Procedure: (§1) NTD was incubated with heme and run on Superdex 75 gel filtration column. The flow through was measured for absorbance at 230 nm (gray), 380 nm (blue), and 415 nm (green). Absorbance intensity was normalized to maximum value. […] Heme (100 μM) absorption was set to zero. […] Wildtype (WT) and mutant (Mut) peptide sequences are shown. […] Shown are representative data from five separate experiments. […] Shown are immunoblots of MFSD7C, ATP5h, SERCA2b, and HMOX1 on whole lysates or immunoblots of MFSD7C on anti-ATP5h, anti-SERCA2b and anti-HMOX1 immunoprecipitates. Representative data from one from three experiments are shown. […] Shown are representative data from three separate experiments. WCE: whole cell extract, Sup: supernatant, Mito: 10,000 g mitochondrial fraction. […] THP-1 cells were stained with MitoTracker (green), fixed and permeabilized, and then stained with rabbit polyclonal antibody specific for the C-terminus of MFSD7C, followed with Alexa Fluor® 594-labelled goat anti-rabbit antibody (red). Nuclei were labeled using DAPI (blue). […]
(§2) Differentiation of bone marrow-derived macrophage (BMDM). […] Cells were resuspended in DMEM media containing 10% FBS, 2 mM L-glutamine, 2 mM pyruvate, non-essential amino acids (100 μM each), 0.55 mM 2-mercaptoethanol, penicillin/streptomycin), passed through a 40 μm Falcon cell strainer (VWR) to remove large aggregates, and counted. […]

[3] = target: T2, endogenous MFSD7C and ATP5h (Mus musculus, UniProt Q91X85); assay: Co-IP of endogenous MFSD7C and ATP5h in bone marrow-derived macrophages; type: cell-based; settings: heme treatment
T2 construct: Co-IP and immunoblotting analysis of endogenous MFSD7C with ATP5h, SERCA2b and HMOX1 in bone marrow-derived macrophages; endogenous in cells; host or cells: bone marrow-derived macrophages from Mfsd7c fl/fl C57BL/6 mice
T2 sequence (Q91X85 whole entry): as above
Procedure: as §1, §2

4B8^FL cells [4] = assay: MMP (JC-10 kit, flow cytometry) in 4B8 cells complemented with full length MFSD7C; type: cell-based, human; settings: heme 1 hour
Procedure: FIGS. 4A-4H show NTD of MFSD7C mediates heme effect on mitochondrial respiration. FIGS. 4A-4C show comparison of basal OCR (FIG. 4A), maximal OCR (FIG. 4B) and ECAR (FIG. 4C) of THP-1, 4B8, and 4B8^FL and 4B8^ΔN cells treated with vehicle or heme for 1 hour (n=18 separate experiments). […] Cells were incubated with FPT for 6 hrs, washed and reseeded in poly-lysine coated glass bottom dishes. After cells attached to the glass, medium containing 40 μM heme was added. Cells in the same field were imaged immediately and again 1 hour later. Relative FPT fluorescent intensities, normalized to THP-1, from three experiments are shown. (n=3 independent experiments). […] THP-1 cells were co-cultured with 4B8, 4B8^FL, or 4B8^ΔN in FPT solution for 6 hrs, washed and reseeded in poly-lysine coated glass bottom dishes. Cells were imaged by confocal laser-scanning microscopy. […] Representative images from three experiments are shown. Scale bar: 10 μm. […] THP-1, 4B8, 4B8^FL and 4B8^ΔN cells were treated with vehicle or heme for 1 hour and MMP was measured by using JC-10 Mitochondrial Membrane Potential Assay Kit followed by flow cytometry. […] Shown are representative Western blotting data (FIG. 4G) and quantification of band intensities from n=3 independent experiments (FIG. 4H). P-values were calculated using two-way ANOVA (*p<0.05, **p<0.01, ***p<0.005). […]

THP-1 cells [5] = assay: Mitochondrial membrane potential by TMRE and flow cytometry; type: cell-based, human; settings: heme 1 hour, reduced to similar levels as in 7CKO cells
Procedure: Mitochondrial membrane potential was measured using Abcam kit (Catalog No. ab113852). Briefly, BMDM, THP-1 and 7CKO cells were not treated or treated with […] for 1 hour. The cells were incubated with mitochondrial membrane potential indicator, 200 nM TMRE (tetramethylrhodamine, ethyl ester) for 20 minutes. The mean fluorescence intensity of TMRE were determined by flow cytometry.

THP-1 cells [6] = assay: Thermogenesis by fluorescent polymeric thermometer (FPT), flow cytometry; type: cell-based, human; settings: heme treatment for one hour
Procedure: In the second approach, we used fluorescent polymeric thermometer (FPT), which we synthesized in-house (see above). Parental and knockout THP-1 cells were mixed together, washed and incubated with FPT in 5% w/v glucose solution for 6 hrs. The cells were washed with PBS twice and reseeded in dishes with glass bottom that was coated with poly-lysine. The cells were imaged under Confocal Laser-Scanning Microscopy at 37° C. Alternatively, THP-1, MCF7, 293T, 7CKO, SERCA2b^−/− cells were incubated with FPT and control polymer overnight and followed with vehicle or hematin treatment for 1 hour. Then the fluorescence intensities were determined by a flow cytometer.

Compound: C=CC1=C(C)c2cc3[n-]c(cc4[n-]c(cc5nc(cc1n2)C(C)=C5C=C)c(C)c4CCC(=O)O)c(CCC(=O)O)c3C.[Fe+2] [heme]
- OCR (MCF7 cells): significantly stimulated
- FPT intensity (4B8^FL cells [1]): increased
- co-IP of endogenous MFSD7C and SERCA2b [2]: diminished
- interactions between endogenous MFSD7C and ATP5h (co-IP) [3]: disrupted
- MMP (4B8^FL cells [4]): decreased
- MMP (THP-1 cells [5]): reduced
- FPT fluorescence by flow cytometry (THP-1 cells [6]): almost all cells had dramatically increased fluorescence

Reference: patent publication US20230313199A1, “TARGET FOR MODULATING BODY MASS” (Massachusetts Institute of Technology, priority 2020, published 2023)
